Results on three compounds are retold here after patent publication US8937072B2, “Substituted cyanoaniline compounds, preparation and use thereof” (Sinochem Corporation, priority 2011, dated 2015).

One assay has as its system cucumber gray mold. The assay can be described thus: Activity in vitro (96-well, High Through Put): inhibition rate against cucumber gray mold. The conditions noted are these: 0.3 mg/L. The format is cell-based. The gist of the method:
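Compound in acetone, methanol or DMF was combined with pathogen suspension under sterile conditions and held in a constant-temperature box. After 24 hours germination or growth was scored by eye against an untreated control to give the inhibition rate.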
`N#Cc1c(Cl)c(Cl)c(Nc2ccccc2)c(Cl)c1C#N` [KC14] returned an inhibition at 0.3 µg/mL of 0%.

In the case of `N#Cc1c(Cl)c(Cl)c(C#N)c(Nc2ccccc2)c1Cl` [KC15], the inhibition at 0.3 µg/mL stood at 0%.

In the case of `COc1ccc(Nc2c(Cl)c(Cl)c(C#N)c(Cl)c2C#N)cc1` [KC4], the inhibition at 0.3 µg/mL worked out at 0%.

Still in this assay, the particulars now being: 0.9 mg/L; read-out: the inhibition rate against cucumber gray mold (%).
Consider `N#Cc1c(Cl)c(Cl)c(Nc2ccccc2)c(Cl)c1C#N` [KC14], for which the inhibition at 0.9 µg/mL is 0%.

With `N#Cc1c(Cl)c(Cl)c(C#N)c(Nc2ccccc2)c1Cl` [KC15], the inhibition at 0.9 µg/mL is 0%.

As for `COc1ccc(Nc2c(Cl)c(Cl)c(C#N)c(Cl)c2C#N)cc1` [KC4], the inhibition at 0.9 µg/mL amounted to 0%.

The same assay, now with this note: 2.8 mg/L; read-out: the inhibition rate against cucumber gray mold (%).
On to `N#Cc1c(Cl)c(Cl)c(Nc2ccccc2)c(Cl)c1C#N` [KC14], for which the inhibition at 2.8 µg/mL is 0%.

As to `N#Cc1c(Cl)c(Cl)c(C#N)c(Nc2ccccc2)c1Cl` [KC15], the inhibition at 2.8 µg/mL was found to be 0%.

Regarding `COc1ccc(Nc2c(Cl)c(Cl)c(C#N)c(Cl)c2C#N)cc1` [KC4], the inhibition at 2.8 µg/mL worked out at 50%.

The same assay, now with this note: 8.3 mg/L; read-out: the inhibition rate against cucumber gray mold (%).
For `N#Cc1c(Cl)c(Cl)c(Nc2ccccc2)c(Cl)c1C#N` [KC14], the inhibition at 8.3 µg/mL worked out at 0%.

On to `N#Cc1c(Cl)c(Cl)c(C#N)c(Nc2ccccc2)c1Cl` [KC15], for which the inhibition at 8.3 µg/mL worked out at 0%.

`COc1ccc(Nc2c(Cl)c(Cl)c(C#N)c(Cl)c2C#N)cc1` [KC4]: the inhibition at 8.3 µg/mL was 100%.

Staying with this assay, now noted: in vitro, dose 0.9 mg/L; read-out: inhibition rate against cucumber gray mold.
As to `COc1ccc(Nc2c(Cl)c(Cl)c(C#N)c(Cl)c2C#N)cc1` [KC4], the inhibition at 0.9 µg/mL is 0%.

Staying with this assay, now noted: in vitro, dose 2.8 mg/L; read-out: inhibition rate against cucumber gray mold.
Regarding `COc1ccc(Nc2c(Cl)c(Cl)c(C#N)c(Cl)c2C#N)cc1` [KC4], the inhibition at 2.8 µg/mL turned out to be 50%.

Staying with this assay, now noted: in vitro, dose 25 mg/L.
`N#Cc1c(Cl)c(Cl)c(Nc2ccccc2)c(Cl)c1C#N` [KC14] came in with an inhibition at 25 µg/mL of 0%.

`N#Cc1c(Cl)c(Cl)c(C#N)c(Nc2ccccc2)c1Cl` [KC15]: the inhibition at 25 µg/mL was 0%.

The subject of the next assay is rice blast. Put plainly: microbe, parasite or virus in culture. The format is cell-based. The conditions noted are these: Pyricularia oryzae, read-out: inhibition rate against rice blast.
Take `COc1ccc(Nc2c(Cl)c(Cl)c(C#N)c(Cl)c2C#N)cc1` [KC4]: the inhibition at 0.9 µg/mL was found to be 0%.

The assay is the same for the next values; noted with them: Pyricularia oryzae, read-out: the inhibition rate against rice blast (%) 0.03 mg/L.
Consider `N#Cc1c(Cl)c(Cl)c(Nc2ccccc2)c(Cl)c1C#N` [KC14], for which the inhibition at 0.03 µg/mL came out at 0%.

As for `N#Cc1c(Cl)c(Cl)c(C#N)c(Nc2ccccc2)c1Cl` [KC15], the inhibition at 0.03 µg/mL is 0%.

Regarding `COc1ccc(Nc2c(Cl)c(Cl)c(C#N)c(Cl)c2C#N)cc1` [KC4], the inhibition at 0.03 µg/mL stood at 0%.

Staying with this assay, now noted: Pyricularia oryzae, read-out: the inhibition rate against rice blast (%) 0.1 mg/L.
Turning to `N#Cc1c(Cl)c(Cl)c(Nc2ccccc2)c(Cl)c1C#N` [KC14], the inhibition at 0.1 µg/mL came out at 0%.

In the case of `N#Cc1c(Cl)c(Cl)c(C#N)c(Nc2ccccc2)c1Cl` [KC15], the inhibition at 0.1 µg/mL came to 0%.

In the case of `COc1ccc(Nc2c(Cl)c(Cl)c(C#N)c(Cl)c2C#N)cc1` [KC4], the inhibition at 0.1 µg/mL turned out to be 0%.

Still in this assay, the particulars now being: Pyricularia oryzae, read-out: the inhibition rate against rice blast (%) 0.3 mg/L.
As for `N#Cc1c(Cl)c(Cl)c(Nc2ccccc2)c(Cl)c1C#N` [KC14], the inhibition at 0.3 µg/mL is 0%.

In the case of `N#Cc1c(Cl)c(Cl)c(C#N)c(Nc2ccccc2)c1Cl` [KC15], the inhibition at 0.3 µg/mL was 0%.

Take `COc1ccc(Nc2c(Cl)c(Cl)c(C#N)c(Cl)c2C#N)cc1` [KC4]: the inhibition at 0.3 µg/mL was 0%.

The subject of a further assay is cucumber downy mildew. Put plainly: Protectant activity in vivo (whole plant) against cucumber downy mildew. The conditions noted are these: Cucumis sativus, 168 h; 12.5 mg/L. The gist of the method:
(§1)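 Compound stock in organic solvent (≤5% v/v) diluted in water with 0.1% Tween-80 and sprayed onto whole host plants. Fungal inoculation 24 h later; humidity chamber then greenhouse as the pathogen requires. Activity rated visually, usually after 7 days.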
Regarding `N#Cc1c(Cl)c(Cl)c(Nc2ccccc2)c(Cl)c1C#N` [KC14], the pest or weed control at 12.5 µg/mL stood at 0%.

As for `N#Cc1c(Cl)c(Cl)c(C#N)c(Nc2ccccc2)c1Cl` [KC15], the pest or weed control at 12.5 µg/mL was determined as 0%.

The same assay, now with this note: Cucumis sativus, 168 h; 25 mg/L; read-out: the protectant activity (%) against cucumber downy mildew.
Turning to `N#Cc1c(Cl)c(Cl)c(Nc2ccccc2)c(Cl)c1C#N` [KC14], the pest or weed control at 25 µg/mL turned out to be 0%.

Turning to `N#Cc1c(Cl)c(Cl)c(C#N)c(Nc2ccccc2)c1Cl` [KC15], the pest or weed control at 25 µg/mL was found to be 0%.

The assay is the same for the next values; noted with them: Cucumis sativus, 168 h; 50 mg/L; read-out: the protectant activity (%) against cucumber downy mildew.
For `N#Cc1c(Cl)c(Cl)c(Nc2ccccc2)c(Cl)c1C#N` [KC14], the pest or weed control at 50 µg/mL was 0%.

Take `N#Cc1c(Cl)c(Cl)c(C#N)c(Nc2ccccc2)c1Cl` [KC15]: the pest or weed control at 50 µg/mL turned out to be 10%.

Still in this assay, the particulars now being: Cucumis sativus, 168 h; 100 mg/L; read-out: the protectant activity (%) against cucumber downy mildew.
With `N#Cc1c(Cl)c(Cl)c(Nc2ccccc2)c(Cl)c1C#N` [KC14], the pest or weed control at 100 µg/mL came out at 0%.

With `N#Cc1c(Cl)c(Cl)c(C#N)c(Nc2ccccc2)c1Cl` [KC15], the pest or weed control at 100 µg/mL was 20%.

The assay is the same for the next values; noted with them: Cucumis sativus, 168 h; dose 25 mg/L; read-out: protectant activity against cucumber downy mildew in vivo.
`N#Cc1c(Cl)c(Cl)c(C#N)c(Nc2ccccc2)c1Cl` [KC15]: the pest or weed control at 25 µg/mL stood at 0%.

As to `COc1ccc(Nc2c(Cl)c(Cl)c(C#N)c(Cl)c2C#N)cc1` [KC4], the pest or weed control at 25 µg/mL is 0%.

Still in this assay, the particulars now being: Cucumis sativus, 168 h; dose 50 mg/L; read-out: protectant activity against cucumber downy mildew in vivo.
Turning to `N#Cc1c(Cl)c(Cl)c(C#N)c(Nc2ccccc2)c1Cl` [KC15], the pest or weed control at 50 µg/mL is 10%.

The same assay, now with this note: Cucumis sativus, 168 h; dose 100 mg/L; read-out: protectant activity against cucumber downy mildew in vivo.
Consider `N#Cc1c(Cl)c(Cl)c(Nc2ccccc2)c(Cl)c1C#N` [KC14], for which the pest or weed control at 100 µg/mL was determined as 0%.

Consider `N#Cc1c(Cl)c(Cl)c(C#N)c(Nc2ccccc2)c1Cl` [KC15], for which the pest or weed control at 100 µg/mL amounted to 20%.

The test system of a further assay is wheat powdery mildew. Put plainly: Protectant activity in vivo (whole plant) against wheat powdery mildew. The conditions noted are these: Triticum aestivum, 168 h; dose 100 mg/L. On the procedure: The method is as followed: The whole plant is used in this test. The compound is dissolved in a proper solvent to get mother solution. The proper solvent is selected from acetone, methanol, DMF and so on according to their dissolving capability to the sample. The volume rate of solvent and testing solution (v/v) is equal to or less than 5%. The mother solution is diluted with water containing 0.1% tween-80 to get the testing solution whose concentration is designed. The testing solution is sprayed to the host plant by a special plant sprayer. The plant is inoculated with fungus after 24 hours. According to the infecting characteristic of fungus, the plant is stored in a humidity chamber and then transferred into greenhouse after infection is finished. And the other plants are placed in greenhouse directly. The activity of compound is obtained by eyeballing after 7 days in common.
Compound `N#Cc1c(Cl)c(Cl)c(Nc2ccccc2)c(Cl)c1C#N` [KC14] came in with a pest or weed control at 100 µg/mL of 0%.

The assay is the same for the next values; noted with them: Triticum aestivum, 168 h; dose 400 mg/L.
As to `N#Cc1c(Cl)c(Cl)c(Nc2ccccc2)c(Cl)c1C#N` [KC14], the pest or weed control at 400 µg/mL amounted to 30%.

As for `N#Cc1c(Cl)c(Cl)c(C#N)c(Nc2ccccc2)c1Cl` [KC15], the pest or weed control at 400 µg/mL is 0%.

`COc1ccc(Nc2c(Cl)c(Cl)c(C#N)c(Cl)c2C#N)cc1` [KC4] gave a pest or weed control at 400 µg/mL of 0%.

Another assay relates to plasmopora viticola.
Assay: not given
The conditions noted are these: at high dose; cited from earlier work.
In the case of `N#Cc1c(Cl)c(Cl)c(Nc2ccccc2)c(Cl)c1C#N` [KC14], the “activity on relevant diseases such as plasmopora viticola” value was “some activity”.

Regarding `N#Cc1c(Cl)c(Cl)c(C#N)c(Nc2ccccc2)c1Cl` [KC15], the “activity on relevant diseases such as plasmopora viticola” value is listed as “some activity”.

For the next assay, the system named is corn rust. The assay can be described thus: Protectant activity in vivo (whole plant) against corn rust. The conditions noted are these: Zea mays, 168 h; 6.25 mg/L. In a few lines:
as §1
As to `N#Cc1c(Cl)c(Cl)c(Nc2ccccc2)c(Cl)c1C#N` [KC14], the pest or weed control at 6.25 µg/mL was 0%.

For the compound `N#Cc1c(Cl)c(Cl)c(C#N)c(Nc2ccccc2)c1Cl` [KC15], the pest or weed control at 6.25 µg/mL is 0%.

The compound `COc1ccc(Nc2c(Cl)c(Cl)c(C#N)c(Cl)c2C#N)cc1` [KC4] registered a pest or weed control at 6.25 µg/mL of 0%.

Staying with this assay, now noted: Zea mays, 168 h; 25 mg/L.
The compound `N#Cc1c(Cl)c(Cl)c(Nc2ccccc2)c(Cl)c1C#N` [KC14] returned a pest or weed control at 25 µg/mL of 0%.

As for `N#Cc1c(Cl)c(Cl)c(C#N)c(Nc2ccccc2)c1Cl` [KC15], the pest or weed control at 25 µg/mL was 0%.

With `COc1ccc(Nc2c(Cl)c(Cl)c(C#N)c(Cl)c2C#N)cc1` [KC4], the pest or weed control at 25 µg/mL came out at 0%.

The same assay, now with this note: Zea mays, 168 h; 100 mg/L.
For the compound `N#Cc1c(Cl)c(Cl)c(Nc2ccccc2)c(Cl)c1C#N` [KC14], the pest or weed control at 100 µg/mL turned out to be 0%.

With `N#Cc1c(Cl)c(Cl)c(C#N)c(Nc2ccccc2)c1Cl` [KC15], the pest or weed control at 100 µg/mL was determined as 0%.

For `COc1ccc(Nc2c(Cl)c(Cl)c(C#N)c(Cl)c2C#N)cc1` [KC4], the pest or weed control at 100 µg/mL was determined as 0%.

The assay is the same for the next values; noted with them: Zea mays, 168 h; 400 mg/L; read-out: the protectant activity (%) against corn rust.
As to `N#Cc1c(Cl)c(Cl)c(Nc2ccccc2)c(Cl)c1C#N` [KC14], the pest or weed control at 400 µg/mL was found to be 0%.

In the case of `N#Cc1c(Cl)c(Cl)c(C#N)c(Nc2ccccc2)c1Cl` [KC15], the pest or weed control at 400 µg/mL is 0%.

With `COc1ccc(Nc2c(Cl)c(Cl)c(C#N)c(Cl)c2C#N)cc1` [KC4], the pest or weed control at 400 µg/mL amounted to 0%.

The same assay, now with this note: Zea mays, 168 h; dose 400 mg/L; read-out: protectant activity against corn rust in vivo.
As to `N#Cc1c(Cl)c(Cl)c(Nc2ccccc2)c(Cl)c1C#N` [KC14], the pest or weed control at 400 µg/mL was determined as 0%.

Turning to `N#Cc1c(Cl)c(Cl)c(C#N)c(Nc2ccccc2)c1Cl` [KC15], the pest or weed control at 400 µg/mL stood at 0%.

As to `COc1ccc(Nc2c(Cl)c(Cl)c(C#N)c(Cl)c2C#N)cc1` [KC4], the pest or weed control at 400 µg/mL stood at 0%.
